US11459397B2, “Self-crosslinking antibodies” (Meditope Biosciences, Inc., priority 2016, dated 2022)

How the values were obtained:
[1] = tested on: CLL; settings: Phase I, cited from earlier work
[2] = molecular target: cetuximab Fab fragment; test: meditope binding to cetuximab Fab; settings: meditope-binding site within the central cavity of the cetuximab Fab fragment; read-out: binding constant
Description: In some examples, the meditope-binding site is a structural feature of the monoclonal antibody cetuximab. Thus, in some cases, the meditope-binding site contains residues corresponding to those within the meditope binding site of cetuximab.

[3] = modulation of self-crosslinking by free meditope, silver-stained native gel; assay type: physicochemical; settings: 1 μM free meditope, 100 nM SnAP-body variants 1, 2, 3
[4] = tested on: HER2 expressing SK-OV-3-Luc ovarian xenograft; test: efficacy in SK-OV-3-Luc ovarian xenograft subcutaneous model; assay type: in vivo, mice; settings: 20 mg/kg ip BIW, day 52 pi
Description: This study was performed to evaluate the efficacy of ADC constructs against HER2 expressing SK-OV-3-Luc ovarian xenograft subcutaneous model using both bioluminescent imaging and traditional tumor caliper measurement. Sixty-five female athymic nudes, 4 weeks old of age were obtained from Charles River. SK-OV-3-Luc cells were expanded using standard tissue culture technique. On the day of implantation, 2.5×10^6 cells in incomplete media with 30% matrigel were implanted to the right lower flank of each mouse. Animals were stratified into 7 groups of 8 mice for treatment based on the total flux (Perkin Elmer IVIS Lumina XRMS II) at day 10 pi. Animals were weighed twice weekly in conjunction with tumor measurements. Bioluminescent Imaging were performed once a week. Tumor mass were calculated using the following formula: Mass (mg)=Tumor volume (mm^3)=d^2×D/2, where d and D are the shortest and longest diameter in mm, respectively.

[5] = 46 heavily pretreated CLL patients, single agent

Sequence of cetuximab Fab fragment (as listed by the source, other chains not shown): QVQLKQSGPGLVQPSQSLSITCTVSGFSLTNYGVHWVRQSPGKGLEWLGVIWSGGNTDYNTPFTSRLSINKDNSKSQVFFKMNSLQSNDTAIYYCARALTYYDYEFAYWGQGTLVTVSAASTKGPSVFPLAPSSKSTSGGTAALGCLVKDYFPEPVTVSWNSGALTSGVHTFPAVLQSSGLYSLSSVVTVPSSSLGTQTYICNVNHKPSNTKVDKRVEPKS

lumiliximab: primatized anti-CD23 mAb that contains cynomolgus macaque variable regions and human constant regions (IgG1-κ)
objective Complete Responses (CRs) or Partial Responses (PRs) [1, 5]: no objective Complete Responses (CRs) or Partial Responses (PRs) were observed
patients with decreased peripheral blood lymphocyte counts [1, 5]: 91 % of patients
patients with reduced enlarged lymph node size [1, 5]: 52 % of patients
MTD (maximum tolerated dose) ([1]; CLL patients): not reached
adverse events (AEs) ([1]; CLL patients): majority of adverse events (AEs) are limited to grade 1/2
immunosuppression ([1]; CLL patients): not immunosuppressive

C-QFDLSTRRLK-C [cQFD meditope]
Kd [2]: ~700 nM
effect of free meditope on antibody self-crosslinking [3]: can interfere with the self-crosslinking ability of self-crosslinking antibodies

CC(=O)O[C@H]1C(=O)[C@@]2(C)[C@H]([C@H](OC(=O)c3ccccc3)[C@]3(O)C[C@H](OC(=O)[C@H](O)[C@@H](NC(=O)c4ccccc4)c4ccccc4)C(C)=C1C3(C)C)[C@]1(OC(C)=O)CO[C@@H]1C[C@@H]2O [Paclitaxel]
TGI [4]: 2.80%
